Here are results for one compound from paper PMC7667029, “A Targeted Computational Screen of the SWEETLEAD Database Reveals FDA-Approved Compounds with Anti-Dengue Viral Activity” (mBio, 2020).

For experiment [1], the system named is DENV2. In words: Antiviral activity in DENV2-infected Huh7 cells, infectious virus in supernatant by plaque assay. It counts as cell-based, dengue virus. Particulars: Dengue virus, Huh-7, DENV2-infected Huh7 cells. The protocol: FIG 2 Pyrimethamine inhibits dengue virus and NS2B/3 proteinase cleavage like ARDP0006. (A) Chemical structures and (B) ROCS overlay of ARDP0006 and pyrimethamine. […] Infectious virus in cell supernatant was quantified by plaque assay at 24 hpi (left y axis, black or red). Cell viability was measured at the same pyrimethamine doses 24 h posttreatment by WST-1 assay (right y axis, gray). Viral titer and cell viability were normalized to DMSO-treated samples. (D) Splenic titers of DENV2-infected AGB6 mice at 4 days postinfection. Mice were infected with 1 × 10^6 PFU DENV2 and treated twice daily with 20 mg/kg pyrimethamine (n = 9) or a vehicle control (n = 10). Data were analyzed by two-tailed unpaired t test. (E) Cleavage kinetics of NS2B/3/4A in the presence of 100 μM pyrimethamine. NS2B/3/4A protein was expressed in vitro and radiolabeled with [^35S]methionine, followed by treatment with 100 μM pyrimethamine or DMSO. Reaction samples were obtained over a 45-min time course, separated by SDS-PAGE, and the fraction of uncleaved proteinase precursor remaining was determined as described previously ([23]). Data from three replicates were fit using single-phase exponential decay functions, and P value was determined by comparing the rate constant, K, of the models using the extra sum-of-squares F test.
Dengue plaque assays were carried out on BHK-21 cells in 24-well plates. Cells were infected with 10-fold serial dilutions of virus, which were allowed to adsorb for at least 1 h at 37°C, and overlaid with standard cell culture medium plus 0.37% (w/vol) sodium bicarbonate and 0.8% (w/vol) Aquacide II (Millipore Calbiochem). After 7 days of incubation at 37°C, 5% CO2, cells were fixed with 5% (final) formaldehyde and stained with crystal violet for plaque enumeration.
Between 4 × 10^4 and 1 × 10^5 Huh7 cells per well were seeded into 24-well plates 1 day prior to infection. Compounds were diluted to 100× final concentration in DMSO and then further diluted 1:100 into appropriate cell culture. Unless otherwise indicated, tested compounds were present for 1 h pretreatment and readministered for posttreatment following infection. […] Media and drugs were removed from cells for infection at a multiplicity of infection (MOI) of 0.1 or 0.5 in 200 μl cold medium per well. After 1 h at 37°C, virus inoculum was removed by aspiration and replaced with medium plus compound or control. After 24-h total infection, infectious virus was quantified by plaque assay. Antiviral IC50 dose-response curves were fitted in GraphPad Prism 8 using the “[inhibitor] versus response, variable slope” function with a constraint “bottom > 0.” IC90 values are defined as the dose at which “y = (span × 0.1) + bottom.”

The subject of experiment [2] is DENV2. As to the kind of experiment: DENV2-infected AGB6 mouse model (splenic titer, survival). Particulars: AGB6 mice, 15 mg/kg vandetanib twice daily, 15 mg/kg; for Splenic viral titer: 4 days postinfection; for Survival of infected mice: oral. It counts as in vivo, AGB6 mice.
The subject of the next experiment is dengue virus. In words: Initial screening of hit compounds for anti-dengue activity in tissue culture cells (Table S1). It is filed as cell-based. Particulars: viral titer relative to vehicle, tissue culture cell lines (BHK-21 48 hpi, Fig. S1; Huh7, Fig. 2C, 3C, 4C).

With `COc1cc2c(Nc3ccc(Br)cc3F)ncnc2cc1OCC1CCN(C)CC1` [Vandetanib, vandetanib], in the experiment with DENV2 [1] (from dose-response curve fit, 24 hpi), the IC90 came to 3600 nM. In addition, in the experiment on DENV2 [1] (single infectious cycle, plaque assay at 24 hpi, read-out: IC50 of viral inhibition (infectious extracellular virus)), the half-inhibitory concentration (IC50) worked out at 1600 nM. Besides, in the experiment on DENV2 [2], the Splenic viral titer entry is reported as “did not affect splenic titers” and the “Survival of infected mice” value was “extend survival”. For the same compound, in the experiment with DENV2 [2] (listed as vandetanib), the Splenic viral titer result is “did not significantly impact splenic viral titer” and the “Survival of infected mice” value is “significantly extended survival”. The Antiviral entry in the experiment on dengue virus is “++ (moderately antiviral, with titer between 5 and 20% of vehicle)”.

Usually IC90 stands for the concentration needed for an effect of 90%. The term IC50 denotes the concentration needed to halve the response being measured.
